# Laboratory results as given in publication doi:10.1101/2021.10.07.463234v2 (biorxiv, 2021).
# Where a name gives a salt, the structure may show the parent alone. Square brackets hold non-standard residues; d marks the D form. Peptide text beside a SMILES is read from it. pGlu = O=C1CC[C@@H](C(=O)O)N1; Thz = O=C(O)[C@@H]1CSCN1
# Target: SARS-CoV-2 Mac1 (Severe acute respiratory syndrome coronavirus 2, UniProt P0DTD1)
# Assay: biochemical
# Conditions: 100 µM; inhibitor
row,SMILES,%inhibition [%]
1,CCCN[C@H]1CCc2nc(N)sc2C1 [Pramipexole 2HCl Monohydrate],5.796
2,CCCN[C@H]1CCc2nc(N)sc2C1 [Pramipexole dihydrochloride],10.17
3,CCCN[C@H]1CCc2nc(N)sc2C1 [Pramipexole],0
4,CC(=O)Oc1cc2c(s1)CCN(C(C(=O)C1CC1)c1ccccc1F)C2 (stereo not shown) [Prasugrel Hydrochloride],0
5,CC(=O)Oc1cc2c(s1)CCN(C(C(=O)C1CC1)c1ccccc1F)C2 (stereo not shown) [Prasugrel],25.16

# Same assay, conditions: read-out: %inhibition
row,SMILES,inhibition at 100 µM [%]
1,Nc1nc(O)c2ncn(CCC(CO)CO)c2n1 [Penciclovir],14.9
2,OC1(c2ccc(Cl)c(C(F)(F)F)c2)CCN(CCCC(c2ccc(F)cc2)c2ccc(F)cc2)CC1 [Penfluridol],5.86
3,CC(C)(S)[C@@H](N)C(=O)O [Penicillamine],0.561
4,CC1(C)S[C@@H]2[C@H](NC(=O)Cc3ccccc3)C(=O)N2[C@H]1C(=O)O [Penicillin G Sodium],5.64
5,CC1(C)S[C@@H]2[C@H](NC(=O)COc3ccccc3)C(=O)N2[C@H]1C(=O)O [Penicillin V potassium salt],0
6,N=C(N)c1ccc(OCCCCCOc2ccc(C(=N)N)cc2)cc1 [Pentamidine isethionate],0
7,CC(=O)CCCCn1c(=O)c2c(ncn2C)n(C)c1=O [Pentoxifylline],19.6
8,CCN(CC)CCOCCOC(=O)C1(c2ccccc2)CCCC1 [Pentoxyverine Citrate],24.6
9,CCCN1C[C@H](CSC)C[C@@H]2c3cccc4[nH]cc(c34)C[C@H]21 [Pergolide Mesylate],7.58
10,CCC[C@H](N[C@@H](C)C(=O)N1[C@H](C(=O)O)C[C@@H]2CCCC[C@@H]21)C(=O)OCC [Perindopril Erbumine],5.79
11,OCCN1CCN(CCCN2c3ccccc3Sc3ccc(Cl)cc32)CC1 [Perphenazine],0
12,FC(F)(F)c1ccc(CNc2ccc(Cc3c[nH]c4ncc(Cl)cc34)cn2)cn1 [Pexidartinib (PLX3397)],0.21
13,Cc1ccc(-n2nc(C(C)(C)C)cc2NC(=O)NCc2cc(F)ccc2Oc2ccc3c(cnn3CCO)c2)cc1 [Pexmetinib (ARRY-614)],0.769
14,CCOc1ccc(NC(C)=O)cc1 [Phenacetin],11.4
15,Nc1ccc(/N=N/c2ccccc2)c(N)n1 [Phenazopyridine HCl],17
16,N=C(N)NC(=N)NCCc1ccccc1 [Phenformin HCl],30.5
17,O=C1c2ccccc2C(=O)C1c1ccccc1 [Phenindione],28.8
18,CN(C)CCC(c1ccccc1)c1ccccn1 (stereo not shown) [Pheniramine Maleate],9.19
19,c1ccc2c(c1)Nc1ccccc1S2 [Phenothiazine],18.2
20,CC(COc1ccccc1)N(CCCl)Cc1ccccc1 (stereo not shown) [Phenoxybenzamine HCl],0
21,Cc1ccc(N(CC2=NCCN2)c2cccc(O)c2)cc1 [Phentolamine Mesylate],0
22,CCCCC1C(=O)N(c2ccccc2)N(c2ccccc2)C1=O [Phenylbutazone],0
23,CNC[C@H](O)c1cccc(O)c1 [Phenylephrine HCl],14.5
24,O=C1N=C(O)NC1(c1ccccc1)c1ccccc1 [Phenytoin Sodium],16
25,O=C1NC(=O)C(c2ccccc2)(c2ccccc2)N1 [Phenytoin],14.7
26,CC(=O)NS(=O)(=O)c1ccc(NC(=O)c2ccccc2C(=O)O)cc1 [Phthalylsulfacetamide],6.67

row,SMILES,inhibition at 100 µM [%]
1,CS(=O)(=O)N1CCN(Cc2cc3nc(-c4cccc5[nH]ncc45)nc(N4CCOCC4)c3s2)CC1 [Pictilisib (GDC-0941)],10.2
2,O=C1CC[C@@H](C(=O)N2CSC[C@H]2C(=O)O)N1 [Pidotimod] ([pGlu]-[Thz]-OH),4.19
3,COc1ccc(Cl)c(Nc2nc3ccccc3nc2NS(=O)(=O)c2cccc(NC(=O)C(C)(C)N)c2)c1 [Pilaralisib (XL147)],31.9
4,CC[C@@H]1C(=O)OC[C@@H]1Cc1cncn1C [Pilocarpine HCl],0
5,CC(C)COc1ccc(CNC(=O)N(Cc2ccc(F)cc2)C2CCN(C)CC2)cc1 [Pimavanserin],1.16
6,CC[C@@H]1/C=C(\C)C[C@H](C)C[C@H](OC)[C@H]2O[C@@](O)(C(=O)C(=O)N3CCCC[C@H]3C(=O)O[C@H](/C(C)=C/[C@@H]3CC[C@H](Cl)[C@H](OC)C3)[C@H](C)[C@@H](O)CC1=O)[C@H](C)C[C@@H]2OC [Pimecrolimus],25.5
7,COc1ccc(-c2nc3cc(C4=NNC(=O)CC4C)ccc3[nH]2)cc1 (stereo not shown) [Pimobendan],13
8,O=c1[nH]c2ccccc2n1C1CCN(CCCC(c2ccc(F)cc2)c2ccc(F)cc2)CC1 [Pimozide],0
9,CCc1ccc(CCOc2ccc(CC3SC(=O)NC3=O)cc2)nc1 (stereo not shown) [Pioglitazone],0
10,CCn1cc(C(=O)O)c(=O)c2cnc(N3CCNCC3)nc21 [Pipemidic acid],0
11,CCN1CCN(C(=O)N[C@@H](C(=O)N[C@@H]2C(=O)N3[C@@H]2SC(C)(C)[C@@H]3C(=O)O)c2ccccc2)C(=O)C1=O [Piperacillin Sodium],24.2
12,C1CNCCN1 [Piperazine],5.65
13,O=C(/C=C/C=C/c1ccc2c(c1)OCO2)N1CCCCC1 [Piperine],0
14,NC(=O)CN1CCCC1=O [Piracetam],9.88
15,Cc1ccc(=O)n(-c2ccccc2)c1 [Pirfenidone],15.4
16,CCn1cc(C(=O)O)c(=O)c2cnc(N3CCCC3)nc21 [Piromidic Acid],10.1
17,CN1C(C(=O)Nc2ccccn2)=C(O)c2ccccc2S1(=O)=O [Piroxicam],38
18,O=C(O)C[C@H](O)C[C@H](O)/C=C/c1c(C2CC2)nc2ccccc2c1-c1ccc(F)cc1 [Pitavastatin Calcium],13.3
19,CN1CCC(=C2c3ccccc3CCc3sccc32)CC1 [Pizotifen Malate],0
20,c1cc(CN2CCCNCCNCCCNCC2)ccc1CN1CCCNCCNCCCNCC1 [Plerixafor (AMD3100)],8.18
21,Nc1cccc2c1C(=O)N(C1CCC(=O)NC1=O)C2=O (stereo not shown) [Pomalidomide],0
22,Cc1ccc(C(=O)Nc2ccc(CN3CCN(C)CC3)c(C(F)(F)F)c2)cc1C#Cc1cnc2cccnn12 [Ponatinib (AP24534)],5.09
23,CCC/N=C1\S/C(=C\c2ccc(OC[C@H](O)CO)c(Cl)c2)C(=O)N1c1ccccc1C [Ponesimod],0
24,CC[C@@H]([C@H](C)O)n1ncn(-c2ccc(N3CCN(c4ccc(OC[C@@H]5CO[C@@](Cn6cncn6)(c6ccc(F)cc6F)C5)cc4)CC3)cc2)c1=O [Posaconazole],37.1
25,C[C@]12CCC(=O)C=C1C=C[C@@H]1[C@@H]2CC[C@@]2(C)[C@H]1CC[C@@]2(O)CCC(=O)O [Potassium Canrenoate],0
26,CC(=O)O [Potassium acetate],11.3

row,SMILES,inhibition at 100 µM [%]
1,C=CN1CCCC1=O [Povidone iodine],0
2,C=CC(=O)N1CCC(Oc2cc3c(Nc4ccc(Cl)c(Cl)c4F)ncnc3cc2OC)CC1 [Poziotinib (HM781-36B)],0
3,CCCCc1nc2cc(/C=C/C(=O)NO)ccc2n1CCN(CC)CC [Pracinostat (SB939)],3.38
4,C#CCC(Cc1cnc2nc(N)nc(N)c2n1)c1ccc(C(=O)N[C@@H](CCC(=O)O)C(=O)O)cc1 (stereo partly shown) [Pralatrexate],13.2
5,C[n+]1ccccc1C=NO [Pralidoxime Iodide],22.4
6,C[n+]1ccccc1/C=N/O [Pralidoxime chloride],8.15
7,CC(C)N(CCNC(=O)CN1CCCC1=O)C(C)C [Pramiracetam],1.25
8,CCCCOc1ccc(OCCCN2CCOCC2)cc1 [Pramoxine HCl],25.7
9,O=C(Nc1cccc2c(=O)cc(-c3nnn[nH]3)oc12)c1ccc(OCCCCc2ccccc2)cc1 [Pranlukast],4.22
10,CC(C(=O)O)c1ccc2c(c1)Cc1cccnc1O2 (stereo not shown) [Pranoprofen],17.8
11,CC[C@H](C)C(=O)O[C@H]1C[C@H](O)C=C2C=C[C@H](C)[C@H](CC[C@@H](O)C[C@@H](O)CC(=O)O)[C@H]21 [Pravastatin sodium],28.2
12,O=C(C1CCCCC1)N1CC(=O)N2CCc3ccccc3C2C1 (stereo not shown) [Praziquantel],0
13,COc1cc2nc(N3CCN(C(=O)c4ccco4)CC3)nc(N)c2cc1OC [Prazosin HCl],17.1
14,CC(=O)OCC(=O)[C@@]1(O)CC[C@H]2[C@@H]3CCC4=CC(=O)C=C[C@]4(C)[C@H]3[C@@H](O)C[C@@]21C [Prednisolone Acetate],15.9
15,C[C@]12C=CC(=O)C=C1CC[C@@H]1[C@@H]2[C@@H](O)C[C@@]2(C)[C@H]1CC[C@]2(O)C(=O)CO [Prednisolone],31
16,C[C@]12C=CC(=O)C=C1CC[C@@H]1[C@@H]2C(=O)C[C@@]2(C)[C@H]1CC[C@]2(O)C(=O)CO [Prednisone],0
17,CC(=O)[C@H]1CC[C@H]2[C@@H]3CC=C4C[C@@H](O)CC[C@]4(C)[C@H]3CC[C@]12C [Pregnenolone],14.7
18,CCCNC(C)C(=O)Nc1ccccc1C (stereo not shown) [Prilocaine hydrochloride],0
19,COc1cc(NC(C)CCCN)c2ncccc2c1 (stereo not shown) [Primaquine Diphosphate],5.42
20,CCC1(c2ccccc2)C(=O)NCNC1=O [Primidone],7.21
21,CCCC(C(=O)OCCN(CC)CC)(c1ccccc1)c1ccccc1 [Proadifen HCl],15.2
22,CC(C)(Sc1cc(C(C)(C)C)c(O)c(C(C)(C)C)c1)Sc1cc(C(C)(C)C)c(O)c(C(C)(C)C)c1 [Probucol],6.54
23,CCN(CC)CCNC(=O)c1ccc(N)cc1 [Procainamide HCl],17.1
24,CCN(CC)CCOC(=O)c1ccc(N)cc1 [Procaine],0
25,CNNCc1ccc(C(=O)NC(C)C)cc1 [Procarbazine HCl],0
